Data on 10 molecules can be found in PubChem BioAssay AID212 (DTP/NCI, 2004).

Each structure is given as a SMILES string. Where “and” joins values, the source holds several entries; their conditions need not be identical. Equal entries are not always repeated. Records with an inconclusive call do not appear.

In this experiment the test system is BDF1 mice, colon carcinoma 38 sc, T/C %. As to the kind of experiment: NCI In Vivo Anticancer Drug Screen. Data for tumor model Colon Carcinoma 38 (subcutaneous) in B6D2F1 (BDF1) mice. A digest of the protocol: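 Ratio of survival or tumor size, compound-treated animals relative to vehicle controls, in tumor-bearing mice.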
Where [1] appears, read: endpoint: median tumor weight (est.), dose: 50.0 mg/kg/injection, schedule: Q07DX002 (ip), vehicle: saline, higher = larger tumour.
[2] abbreviates: endpoint: median tumor weight (est.), dose: 12.5 mg/kg/injection, schedule: Q07DX003 (ip), vehicle: Klucel (hydroxypropylcellulose) (HPC), higher = larger tumour.
The mark [3] stands for this setting: endpoint: median tumor weight (est.), dose: 25.0 mg/kg/injection, schedule: Q07DX003 (ip), vehicle: Klucel (hydroxypropylcellulose) (HPC), higher = larger tumour.
Setting [4] is: endpoint: median tumor weight (est.), dose: 50.0 mg/kg/injection, schedule: Q07DX003 (ip), vehicle: Klucel (hydroxypropylcellulose) (HPC), higher = larger tumour.
The mark [5] stands for this setting: endpoint: median tumor weight (est.), dose: 200.0 mg/kg/injection, schedule: Q07DX003 (ip), vehicle: Klucel (hydroxypropylcellulose) (HPC), higher = larger tumour.

As to `N=c1ccn2c(n1)OC1C(O)C(CO)OC12` (stereo unspecified), the T/C is 84 % of control (endpoint: median tumor weight (est.), dose: 25.0 mg/kg/injection, schedule: Q07DX002 (ip), vehicle: saline, higher = larger tumour); 105 % of control under setting [1]; 94 % of control (endpoint: median tumor weight (est.), dose: 50.0 mg/kg/injection, schedule: Q07DX003 (ip), vehicle: suspension in saline, higher = larger tumour); 73 % of control (endpoint: median tumor weight (est.), dose: 100.0 mg/kg/injection, schedule: Q07DX003 (ip), vehicle: suspension in saline, higher = larger tumour); 66 % of control (endpoint: median tumor weight (est.), dose: 200.0 mg/kg/injection, schedule: Q07DX003 (ip), vehicle: suspension in saline, higher = larger tumour); 51 % of control (endpoint: median tumor weight (est.), dose: 400.0 mg/kg/injection, schedule: Q07DX003 (ip), vehicle: suspension in saline, higher = larger tumour). Moreover, the T/C (endpoint: median tumor weight (est.), dose: 800.0 mg/kg/injection, schedule: Q07DX003 (ip), vehicle: suspension in saline, higher = larger tumour) was 20 % of control; the T/C (endpoint: median tumor weight (est.), dose: 1600.0 mg/kg/injection, schedule: Q07DX002 (ip), vehicle: saline, higher = larger tumour) is 31 % of control; the T/C (endpoint: median tumor weight (est.), dose: 1600.0 mg/kg/injection, schedule: Q07DX003 (ip), vehicle: suspension in saline, higher = larger tumour) was 19 % of control.

Regarding `Nc1ncn(C2OC(CO)C(O)C2O)c(=O)n1` (stereo unspecified), the T/C was 69 % of control (endpoint: median tumor weight (est.), dose: 12.5 mg/kg/injection, schedule: Q07DX002 (ip), vehicle: saline, higher = larger tumour); 19 % of control and 31 % of control (endpoint: median tumor weight (est.), dose: 32.0 mg/kg/injection, schedule: Q07DX002 (ip), vehicle: saline, higher = larger tumour); 80 % of control and 85 % of control and 97 % of control under setting [1]; 88 % of control (endpoint: median tumor weight (est.), dose: 200.0 mg/kg/injection, schedule: Q07DX002 (ip), vehicle: saline with Tween-80, higher = larger tumour); 61 % of control (endpoint: median tumor weight (est.), dose: 400.0 mg/kg/injection, schedule: Q07DX002 (ip), vehicle: saline with Tween-80, higher = larger tumour); 62 % of control and 79 % of control and 82 % of control (endpoint: median tumor weight (est.), dose: 400.0 mg/kg/injection, schedule: Q07DX002 (ip), vehicle: saline, higher = larger tumour). Besides, the T/C is, setting by setting: (endpoint: median tumor weight (est.), dose: 800.0 mg/kg/injection, schedule: Q07DX002 (ip), vehicle: saline with Tween-80, higher = larger tumour) 95 % of control; (endpoint: median tumor weight (est.), dose: 800.0 mg/kg/injection, schedule: Q07DX002 (ip), vehicle: saline, higher = larger tumour) 27 % of control; (endpoint: median tumor weight (est.), dose: 1200.0 mg/kg/injection, schedule: Q07DX002 (ip), vehicle: saline with Tween-80, higher = larger tumour) 55 % of control.

As for `CC(=O)OCc1cc(=O)n(C)c2c3c4c(cc12)c(C)cc(=O)n4CO3`, the T/C was 121 % of control and 106 % of control under setting [2]; 108 % of control under setting [3]; 83 % of control under setting [4]; 94 % of control under setting [5].

As for `CC(CN1CC(=O)NC(=O)C1)N1CC(=O)NC(=O)C1` (stereo unspecified), the T/C by setting is: under setting [3], 84 % of control and 89 % of control; under setting [4], 73 % of control and 85 % of control; under setting [5], 51 % of control and 54 % of control; (endpoint: median tumor weight (est.), dose: 400.0 mg/kg/injection, schedule: Q07DX003 (ip), vehicle: Klucel (hydroxypropylcellulose) (HPC), higher = larger tumour) 9 % of control and 15 % of control.

`CC[n+]1c(-c2ccccc2)c2cc(N)ccc2c2ccc(N)cc21`: the T/C is 99 % of control (endpoint: median tumor weight (est.), dose: 2.5 mg/kg/injection, schedule: Q07DX002 (ip), vehicle: saline, higher = larger tumour); 118 % of control and 103 % of control (endpoint: median tumor weight (est.), dose: 20.0 mg/kg/injection, schedule: Q07DX002 (ip), vehicle: saline, higher = larger tumour).

Take `COc1ccc(OC)c(Cc2cnc3nc(N)nc(N)c3c2C)c1`: the T/C (endpoint: median tumor weight (est.), dose: 12.5 mg/kg/injection, schedule: Q07DX002 (ip), vehicle: water, higher = larger tumour) was 62 % of control; the T/C (endpoint: median tumor weight (est.), dose: 25.0 mg/kg/injection, schedule: Q07DX002 (ip), vehicle: water, higher = larger tumour) is 96 % of control; the T/C (endpoint: median tumor weight (est.), dose: 50.0 mg/kg/injection, schedule: Q07DX002 (ip), vehicle: water, higher = larger tumour) is 67 % of control and 82 % of control; the T/C (endpoint: median tumor weight (est.), dose: 100.0 mg/kg/injection, schedule: Q07DX002 (ip), vehicle: water, higher = larger tumour) is 93 % of control and 100 % of control; the T/C (endpoint: median tumor weight (est.), dose: 200.0 mg/kg/injection, schedule: Q07DX002 (ip), vehicle: water, higher = larger tumour) is 32 % of control.

Consider `C1OC1CO[C@@H]1CO[C@H]2[C@@H]1OC[C@H]2OCC1CO1` (stereo partly specified), for which the T/C reads like this: (endpoint: median tumor weight (est.), dose: 12.5 mg/kg/injection, schedule: Q07DX003 (ip), vehicle: saline, higher = larger tumour) 47 % of control; (endpoint: median tumor weight (est.), dose: 25.0 mg/kg/injection, schedule: Q07DX002 (ip), vehicle: suspension in saline, higher = larger tumour) 116 % of control; (endpoint: median tumor weight (est.), dose: 25.0 mg/kg/injection, schedule: Q07DX003 (ip), vehicle: saline, higher = larger tumour) 82 % of control; (endpoint: median tumor weight (est.), dose: 50.0 mg/kg/injection, schedule: Q07DX002 (ip), vehicle: suspension in saline, higher = larger tumour) 117 % of control; (endpoint: median tumor weight (est.), dose: 50.0 mg/kg/injection, schedule: Q07DX003 (ip), vehicle: saline, higher = larger tumour) 83 % of control; (endpoint: median tumor weight (est.), dose: 100.0 mg/kg/injection, schedule: Q07DX002 (ip), vehicle: suspension in saline, higher = larger tumour) 79 % of control. Moreover, the T/C reads like this: (endpoint: median tumor weight (est.), dose: 200.0 mg/kg/injection, schedule: Q07DX002 (ip), vehicle: suspension in saline, higher = larger tumour) 98 % of control; (endpoint: median tumor weight (est.), dose: 200.0 mg/kg/injection, schedule: Q07DX003 (ip), vehicle: saline, higher = larger tumour) 79 % of control and 94 % of control; (endpoint: median tumor weight (est.), dose: 400.0 mg/kg/injection, schedule: Q07DX002 (ip), vehicle: suspension in saline, higher = larger tumour) 70 % of control.

On to `CCc1c(CC(=O)O)c2cc(C)ccc2n1Cc1ccc(Cl)cc1`, for which the T/C (endpoint: median tumor weight (est.), dose: 3.13 mg/kg/injection, schedule: Q07DX002 (ip), vehicle: Klucel (hydroxypropylcellulose) (HPC), higher = larger tumour) was 107 % of control; the T/C (endpoint: median tumor weight (est.), dose: 6.25 mg/kg/injection, schedule: Q07DX002 (ip), vehicle: Klucel (hydroxypropylcellulose) (HPC), higher = larger tumour) is 45 % of control; the T/C (endpoint: median tumor weight (est.), dose: 6.25 mg/kg/injection, schedule: Q07DX003 (ip), vehicle: Klucel (hydroxypropylcellulose) (HPC), higher = larger tumour) was 72 % of control; the T/C (endpoint: median tumor weight (est.), dose: 12.5 mg/kg/injection, schedule: Q07DX002 (ip), vehicle: Klucel (hydroxypropylcellulose) (HPC), higher = larger tumour) was 76 % of control; the T/C under setting [2] was 74 % of control; the T/C (endpoint: median tumor weight (est.), dose: 25.0 mg/kg/injection, schedule: Q07DX002 (ip), vehicle: Klucel (hydroxypropylcellulose) (HPC), higher = larger tumour) was 60 % of control. The T/C was 97 % of control under setting [3]; 98 % of control (endpoint: median tumor weight (est.), dose: 50.0 mg/kg/injection, schedule: Q07DX002 (ip), vehicle: Klucel (hydroxypropylcellulose) (HPC), higher = larger tumour); 116 % of control under setting [4]; 159 % of control (endpoint: median tumor weight (est.), dose: 100.0 mg/kg/injection, schedule: Q07DX002 (ip), vehicle: Klucel (hydroxypropylcellulose) (HPC), higher = larger tumour); 120 % of control (endpoint: median tumor weight (est.), dose: 100.0 mg/kg/injection, schedule: Q07DX003 (ip), vehicle: Klucel (hydroxypropylcellulose) (HPC), higher = larger tumour); 48 % of control under setting [5].

`COc1cccc2c1C(=O)c1c(O)c3c(c(O)c1C2=O)CC(O)(/C(C)=N/NC(=O)CCC(=O)N/N=C(\C)C1(O)Cc2c(O)c4c(c(O)c2C(OC2CC(N)C(O)C(C)O2)C1)C(=O)c1c(OC)cccc1C4=O)CC3OC1CC(N)C(O)C(C)O1` (stereo unspecified): the T/C (endpoint: median survival time, dose: 28.0 mg/kg/injection, schedule: Q07DX003 (sc), vehicle: water, higher = longer survival) is 107 % of control; the T/C (endpoint: median survival time, dose: 73.0 mg/kg/injection, schedule: Q07DX003 (sc), vehicle: water, higher = longer survival) was 100 % of control; the T/C (endpoint: median survival time, dose: 118.0 mg/kg/injection, schedule: Q07DX003 (sc), vehicle: water, higher = longer survival) was 175 % of control; the T/C (endpoint: median tumor weight (est.), dose: 4.0 mg/kg/injection, schedule: Q07DX002 (ip), vehicle: distilled water + Tween-80, higher = larger tumour) was 97 % of control; the T/C (endpoint: median tumor weight (est.), dose: 8.0 mg/kg/injection, schedule: Q07DX002 (ip), vehicle: distilled water + Tween-80, higher = larger tumour) is 90 % of control; the T/C (endpoint: median tumor weight (est.), dose: 8.0 mg/kg/injection, schedule: Q07DX002 (ip), vehicle: water, higher = larger tumour) is 104 % of control. Also, the T/C (endpoint: median tumor weight (est.), dose: 9.48 mg/kg/injection, schedule: Q07DX002 (ip), vehicle: water, higher = larger tumour) is 9 % of control; the T/C (endpoint: median tumor weight (est.), dose: 14.2 mg/kg/injection, schedule: Q07DX002 (ip), vehicle: water, higher = larger tumour) is 2 % of control; the T/C (endpoint: median tumor weight (est.), dose: 16.0 mg/kg/injection, schedule: Q07DX002 (ip), vehicle: distilled water + Tween-80, higher = larger tumour) is 69 % of control; the T/C (endpoint: median tumor weight (est.), dose: 16.0 mg/kg/injection, schedule: Q07DX002 (ip), vehicle: water, higher = larger tumour) is 90 % of control; the T/C (endpoint: median tumor weight (est.), dose: 32.0 mg/kg/injection, schedule: Q07DX002 (ip), vehicle: distilled water + Tween-80, higher = larger tumour) is 59 % of control; the T/C (endpoint: median tumor weight (est.), dose: 32.0 mg/kg/injection, schedule: Q07DX002 (ip), vehicle: water, higher = larger tumour) is 54 % of control. The T/C (endpoint: median tumor weight (est.), dose: 64.0 mg/kg/injection, schedule: Q07DX002 (ip), vehicle: distilled water + Tween-80, higher = larger tumour) was 4 % of control.

As for `CO[C@@]12[C@@H]3N[C@@H]3CN1C1=C(C(=O)C(NCC3CCCO3)=C(C)C1=O)[C@@H]2COC(N)=O` (stereo partly specified), the T/C is 93 % of control (endpoint: median tumor weight (est.), dose: 3.0 mg/kg/injection, schedule: Q07DX002 (ip), vehicle: distilled water + Tween-80, higher = larger tumour); 69 % of control (endpoint: median tumor weight (est.), dose: 6.0 mg/kg/injection, schedule: Q07DX002 (ip), vehicle: distilled water + Tween-80, higher = larger tumour); 34 % of control (endpoint: median tumor weight (est.), dose: 12.0 mg/kg/injection, schedule: Q07DX002 (ip), vehicle: distilled water + Tween-80, higher = larger tumour); 28 % of control (endpoint: median tumor weight (est.), dose: 24.0 mg/kg/injection, schedule: Q07DX002 (ip), vehicle: distilled water + Tween-80, higher = larger tumour).
